Results as given in patent US20070281028A1, “Drug Delivery of a Cox Inhibitor from Embolic Agents” (Biocompatibles Uk Limited, priority 2004, published 2007).
Several values for one entry are separate records, joined by “and”; a condition that tells them apart may be missing. Identical values can stand only once.

What was measured:
[1] = Loading (uptake) of drug into microspheres, from depletion of loading solution (UV/HPLC); format: physicochemical; conditions: for dose loaded per ml of hydrated microspheres: 5 ml of 100 mg/ml drug in ethanol added to 0.5 ml microspheres; for ketorolac loaded in microspheres: low AMPS 500-710 μm, loaded from water; for ketoprofen loaded/ml spheres, maximum loading: at 24 hours
Experimental: A solution of 100 mg/ml flurbiprofen (Sigma) in ethanol was prepared. […] Low AMPS and high AMPS microspheres of size 500-710 μm were used and drug uptake monitored by UV. The samples were agitated on a roller mixer. Aliquots of supernatant were taken at 10, 20, 30, 60 mins and then at 2 hr, out to 24 hr. Uptake was calculated from the flurbiprofen remaining in solution. […] Microspheres of the present invention of each size loaded with 200 mg/ml flurbiprofen were placed in 250 ml water at 37° C.
The samples were agitated on a roller mnixer.
5 ml of the solution was added to 0.5 ml of low AMPS microspheres, of size 500-710 μm, and uptake monitored by HPLC. The samples were agitated on a roller mixer. Aliquots of supernatant were taken at 5, 10, 20 40 and 60 mins and then 24 hr.
The samples were agitated on a roller mixer. Samples of the supernatant were taken at 10, 20, 40, 60 mins and 24 hrs. […] Elution experiments were carried out on these microspheres (table 1). Microspheres were washed to determine quick burst in various media as in table 1. Then samples were placed in 10 ml solvent and absorbance read after 10 mins, a further 20 ml added and absorbance read after 10 mins, this was repeated up to 90 mls and elution was monitored up to 24 hrs (table 1).
Once prepared, the absorbances of the solutions were read by UV at 263 nm and dilutions were made to produce a standard curve. […] The vials were placed on a roller mixer at room temperature for the entire experiment. At a predetermined time points (0, 10, 20, 30 and 60 min) 100 μl was removed, diluted as necessary (1/200) and read at 263 nm. From the readings and the standard curve, the concentration of the solution at each time point was calculated. The amount of drug loaded onto the beads was measured by the depletion of the drug in solution when extracted with the beads. From the data the mg drug loaded per 1 ml of hydrated beads were calculated and the graph plotted.
Five samples of 1 ml of hydrated beads Low AMPS 700 to 1100 μm were used. For each sample, 1 ml of beads in phosphate buffered saline (PBS), measured with a 10 ml—glass cylinder, was transferred to a glass container and all the PBS was carefully removed with a glass Pasteur pipette. […] Once prepared, the absorbances of the solution and dilutions were read by UV at 263 nm to produce a standard curve. […] The vials were placed on the roller mixer at room temperature for the entire experiment. At predetermined time points (0, 20, 40, 60 and 120 min) 100 μl was removed, diluted as necessary (1/200) and read at 263 nm. From the readings and the standard curve, the concentration of the solution at each time point was calculated. The amount of drug loaded onto the beads was measured by the depletion of the drug in solution. From the data the mg drug loaded per 1 ml of beads were calculated and the graph plotted (FIG. 12).
Six samples of 1 ml of beads (700-1100 μm) were used. For each sample, 1 ml of beads in phosphate buffered saline (PBS), measured with a 10 ml glass cylinder, was transferred to a glass container and all the PBS was carefully removed with a glass Pasteur pipette. […] Once prepared, the absorbances of the solution and dilutions of the aqueous and of the alcoholic solutions were read by UV at 263 nm to produce standard curves. […] The vial was placed on the roller mixer at room temperature for the entire experiment. Once loaded, the remaining solution was removed, measured in a graduated measurement cylinder and read at 263 nm.

[2] = Release (elution) of drug from loaded microspheres in vitro; format: physicochemical; conditions: for salicylic acid loaded that was released: 100 ml water, majority within the first 15 minutes
COX-2/COX-1 = conditions: 0 = equal potency; above 0 more selective to COX-1, below 0 more selective to COX-2; cited from earlier work
HIF-1 alpha = conditions: COX-2 independent; cited from earlier work
HIF-2 alpha = conditions: COX-2 independent; cited from earlier work
[3] = test system: colorectal cancer cell line; conditions: cited from earlier work
[4] = Plasma levels of ibuprofen after embolisation, intra-arterial or intravenous administration; format: in vivo; conditions: sheep, after intra-arterial administration (IA) of 50 mg solution in both left and right artery
[5] = high AMPS microspheres 500-710 μm
[6] = in less than 30 minutes, low and high AMPS microspheres, 100 mg/ml in ethanol
[7] = low AMPS microspheres 500-710 μm
[8] = 10 ml water, 37° C., released in the first 5 minutes

CC(C(=O)O)c1ccc(-c2ccccc2)c(F)c1 (stereo not shown) [Flurbiprofen]
dose loaded per ml of hydrated microspheres [1, 5]: 197 mg per ml of hydrated microsph
drug solution located in the microspheres [1, 6]: 99%
dose loaded per ml of hydrated microspheres [1, 7]: 195 mg per ml of hydrated microsph
further release ([2]; further in 2 days, microspheres loaded with 200 mg/ml, 250 ml water at 37° C.): 5%
release ([2]; in first 10 minutes, microspheres loaded with 200 mg/ml, 250 ml water at 37° C.): 30%

O=C(O)c1ccccc1O [salicylic acid]
maximum salicylic acid taken up per ml of microspheres ([1]; low or high AMPS 500-710 μm, 5 mg/ml in ethanol, after 3-4 hours): 3-4 mg salicylic acid/ml of microspheres
salicylic acid taken up per ml of microspheres ([1]; low or high AMPS 500-710 μm, 5 mg/ml in ethanol, after 24 hours): 2-3 mg/ml of microspheres
salicylic acid loaded that was released ([2]; high AMPS microspheres, 37° C.): approximately 30%
salicylic acid loaded that was released ([2]; low AMPS microspheres, 37° C.): approximately 25%
further release after transferral into fresh water ([2]; transfer to 10 ml fresh water after 60 hours, measured 60 hours more): did not bring about any further release

O=C(O)c1cccnc1Nc1cccc(C(F)(F)F)c1 [Niflumic Acid]
Log [IC80 ratio WHMA COX-2/COX-1)] (COX-2/COX-1): 0

O=C(O)Cc1ccccc1Nc1c(Cl)cccc1Cl [Diclofenac]
dose loaded per ml of hydrated microspheres [1, 5]: 30 mg per ml of hydrated microsph
drug solution located in the microspheres [1, 6]: 99%
dose loaded per ml of hydrated microspheres [1, 7]: 26 mg per ml of hydrated microsph
further release ([2]; further in 48 hrs, microspheres loaded with 26 and 30 mg/ml, 250 ml water at 37° C.): 35%
release ([2]; in first 5 minutes, microspheres loaded with 26 and 30 mg/ml, 250 ml water at 37° C.): 18-26%
HIF-1 alpha gene expression (HIF-1 alpha): inhibited
HIF-2 alpha gene expression (HIF-2 alpha): inhibited

CC(C)Cc1ccc(C(C)C(=O)[O-])cc1.[Na+] (stereo not shown) [ibuprofen sodium salt]
time at which maximum loading is reached ([1]; loaded from ethanol 250 mg/ml, low AMPS beads 700-1100 μm, loading decreases afterwards): about 20 minutes
loading levels, drug per ml of hydrated beads ([1]; range over six microsphere products, 2 ml of 100 mg/ml in water to 1 ml microspheres, 100 minute period): 67 to 142 mg of drug per ml of hydrated beads

O=C(c1ccccc1)c1ccc2n1CCC2C(=O)O (stereo not shown) [Ketorolac]
ketorolac loaded in microspheres ([1]; high loaded microspheres): 27 mg/mL
drug solution located in the microspheres ([1]; in less than 10 minutes, low AMPS microspheres 500-710 μm, 50 mg/ml and 10 mg/ml in water): 99%
ketorolac loaded in microspheres ([1]; low loaded microspheres): 13 mg/mL
released ([2]; high AMPS loaded microspheres (so in the source), first 5 minutes, 250 ml water at 37° C.): 43%
further slow release ([2]; high AMPS loaded microspheres (so in the source), further in the next 24 hrs): 4%
released ([2]; high AMPS loaded microspheres (so in the source), in 1 hrs, 250 ml water at 37° C.): 90%
released ([2]; low loaded microspheres, first 5 minutes, 250 ml water at 37° C.): 75%
further release ([2]; low loaded microspheres, further in next 24 hrs): 5%
released ([2]; low loaded microspheres, in 1 hr, 250 ml water at 37° C.): 90%
HIF-2 alpha gene expression (HIF-2 alpha): inhibited

CC(C(=O)O)c1cccc(C(=O)c2ccccc2)c1 (stereo not shown) [Ketoprofen]
ketoprofen loaded/ml spheres, maximum loading ([1]; high AMPS microspheres 500-710 μm, 30 mg/ml in ethanol): approximately 10 mg ketoprofen loaded/ml spheres
ketoprofen loaded/ml spheres, maximum loading ([1]; low AMPS microspheres 500-710 μm, 30 mg/ml in ethanol): approximately 12 mg ketoprofen loaded/ml spheres
time of maximum loading ([1]; low and high AMPS microspheres, 30 mg/ml in ethanol, monitored over 72 hours): 24 h

CC(C(=O)O)c1cccc(Oc2ccccc2)c1 (stereo not shown) [Fenoprofen]
Log [IC80 ratio WHMA COX-2/COX-1)] (COX-2/COX-1): 0

Cc1cc(CC(=O)O)n(C)c1C(=O)c1ccc(Cl)cc1 [Zomepirac]
Log [IC80 ratio WHMA COX-2/COX-1)] (COX-2/COX-1): 0

CS(=O)(=O)Nc1ccc([N+](=O)[O-])cc1OC1CCCCC1 [NS398]
HIF-2 alpha gene expression (HIF-2 alpha): inhibition
expression of pro-angiogenic factors, including VEGF [3]: diminished

COc1ccc2cc([C@H](C)C(=O)O)ccc2c1 [Naproxen]
naproxen taken up per ml of spheres ([1]; low or high AMPS microspheres 500-710 μm, 30 mg/ml in ethanol, over 168 hours): 35-40 mg naproxen/ml of spheres
drug released per ml of microspheres [2, 8]: 6-9 mg/ml of microspheres
loaded drug released from the microspheres [2, 8]: 17-25%
further release after transfer to fresh water ([2]; transfer to 10 ml fresh water after 17 hours, measured 7 hours more): did not bring about any further release

CC(C)Cc1ccc(C(C)C(=O)O)cc1 (stereo not shown) [Ibuprofen]
Loading mg/ml Bead ([1]; 2 ml loading solution (250 mg/ml in ethanol) to 1 ml low AMPS microspheres, listed as Ibuprofen Free Acid): 177.3 mg/ml Bead and 185.24 mg/ml Bead and 142.82 mg/ml Bead and 187.08 mg/ml Bead and 207.7 mg/ml Bead and 235.53 mg/ml Bead
Loading mg/ml Bead ([1]; 3 ml loading solution (250 mg/ml in ethanol) to 1 ml low AMPS microspheres): 323.7 mg/ml Bead
time at which optimum loading is obtained ([1]; loaded from ethanol, low AMPS beads 700 to 1100 μm, contraction then expels drug solution): around 20 mins
doses loaded per ml of hydrated microspheres ([1]; low AMPS microspheres, 250 mg/ml in ethanol, range over series of experiments): 142-335 mg per ml of hydrated microspheres
Elution rate (range) ([2]; low AMPS microspheres, elution up to 90 mls, up to 24 hrs, over experiments of table 1): 20%-43%
Elution rate, average in most experiments ([2]; low AMPS microspheres, up to 24 hrs): 25%
Eluted Drug ([2]; quick burst/wash out solvent 50% ethanol, elution solvent 50% ethanol, up to 24 hrs): 53 mg
Eluted Drug ([2]; quick burst/wash out solvent 100% ethanol, elution solvent 0.9% Saline (pH 12), up to 24 hrs): 60 mg
Eluted Drug ([2]; quick burst/wash out solvent 100% ethanol, elution solvent 50% ethanol, up to 24 hrs): 47 mg
quick burst ([2]; wash of loaded low AMPS microspheres in various media): approximately 15%
Eluted Drug ([2]; wash out and elution solvent 0.9% Saline (pH 12), 2 ml loading solution, up to 24 hrs, listed as Ibuprofen Free Acid): 47 mg and 83 mg and 57 mg
Eluted Drug ([2]; wash out and elution solvent 0.9% Saline (pH 12), 3 ml loading solution, up to 24 hrs): 77 mg
Cmax [4]: 32000 ng/mL
HIF-2 alpha gene expression (HIF-2 alpha): inhibited
